Structures are written as SMILES.

This assay addresses T1, human EHMT2 913-1193 (Homo sapiens, UniProt Q96KQ7).
T1 construct: recombinant purified human EHMT2 913-1193, Viva; purchased Viva
T1 sequence (Q96KQ7 913-1193): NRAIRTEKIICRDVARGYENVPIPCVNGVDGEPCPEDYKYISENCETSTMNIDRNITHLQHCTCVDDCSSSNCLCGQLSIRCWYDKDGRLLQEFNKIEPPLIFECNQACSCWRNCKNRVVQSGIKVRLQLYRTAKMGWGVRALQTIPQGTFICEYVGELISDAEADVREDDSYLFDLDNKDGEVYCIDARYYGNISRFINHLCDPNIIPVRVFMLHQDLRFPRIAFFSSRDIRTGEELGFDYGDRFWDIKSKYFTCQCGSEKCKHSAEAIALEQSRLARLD
The experiment in a line: EHMT2 enzyme assay on histone peptide substrate (EHMT2 PEP). Type of assay: biochemical. Particulars: Table VI; read-out: EHMT2 PEP IC50. In outline:
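10-pt 3-fold series, 50 μM top final, 2% DMSO; 30 min preinc w/ 0.031 nM enzyme; pH 7.5 Bicine/TCEP buffer; ^3H-SAM + biotin-histone peptide, 60 min RT; SAM quench; streptavidin Flashplate capture, TopCount.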
By IC50 is commonly meant the concentration that gives 50% inhibition. Consider `CNc1cc(C)nc(Nc2cc(OC[C@H](O)CN3CCCC3)c(OC)cn2)n1` [Compound 886], for which the IC50 lay in the range of 1 to 10 µM.

As for `CNc1ccnc(Nc2ccc(OC)c(OC[C@H]3CNCCO3)c2)n1` [Compound 933], the IC50 was over 10 µM.

`CNc1ccnc(Nc2ccc(OC)c(OC[C@@H]3CN(C)CCO3)c2)n1` [Compound 936]: the IC50 was over 10 µM.

Regarding `CCN1CCC(O)(COc2cc(Nc3nccc(NC)n3)ccc2OC)C1` (stereo not shown) [Compound 1007], the half-inhibitory concentration (IC50) was over 10 µM.

Consider `CNc1cc(C2CCOCC2)c2cc(OC)c(OCCCN3CC(O)C3)cc2n1` [Compound 902], for which the half-maximal inhibitory concentration (IC50) was under 0.1 µM.

Take `CNCCCOc1cc(Nc2nccc(NC)n2)ccc1OC` [Compound 916]: the IC50 lay in the range of 0.1 to 1 µM.

As for `CNC[C@@H](COc1cc(Nc2nccc(NC)n2)ccc1OC)OC` [Compound 922], the IC50 is 1 to 10 µM.

The values above are taken from patent publication US20210198277A1, “AMINE-SUBSTITUTED ARYL OR HETEROARYL COMPOUNDS” (Epizyme, Inc., priority 2016, published 2021).
